Results as given in patent US20080108706A1, “Chemical resection of pancreas” (priority 1999, published 2008).

Columns and labels:
[1] = Beagle study Part A: long-term toxicity and pancreatic function after (R,R)-(HO)2DEHSPM; type: in vivo, beagles; conditions: for SGPT / alkaline phosphatase: approximately 60-days post-drug
Description: (§1) Five male beagles approximately 6-8 months of age were obtained from Harlan Sprague Dawley. They were provided with food and water ad libitum and were allowed to acclimate to their new surroundings for two weeks. The animals were weighed prior to starting drug administration and were weighed once per week during the drug dosing period. A CBC and chemistry panel were performed every 1-2 weeks. The drug study was performed in two stages. In the first phase, three animals were given the drug at 2.15 mg/kg/day (dogs #516, 518 and 526). In the second phase, the other two dogs were given the drug at 4.3 mg/kg/day (dogs #490 and 494). In both experiments, the daily drug dose was divided and administered twice daily at 12-hour intervals.
(§2) The results of the long-term washout and subsequent toxicity of the (R,R)—(HO)2DEHSPM are summarized. Briefly, the drug was initially thought to be well tolerated at the 2.15 mg/kg/day dose. In order to compare the long-term washout of the (HO)2DEHSPM as compared to DEHSPM, it was decided not to sacrifice the animal (#516) until 75-days post-drug. […] Chronic pancreatitis or intestinal malabsorption was suspected. […] Inasmuch as the dog was imminently scheduled for sacrifice, no treatment was initiated. At necropsy 75-days post-drug, there was little, if any, abdominal fat and the animal's pancreas was atrophied as described below.
(§3) However, approximately 55-60 days post-drug, it was noted that although the dogs in the 4.3 mg/kg/day group (#490 and 494) were eating well and were bright, alert and responsive, they began losing weight (2 kg). […] In order to further confirm the exocrine pancreatic insufficiency, additional experiments were performed.
(§4) The two dogs (#490 and 494) were fed a prescription canned and dry dog food and were supplemented with Viokase, a pancreatic enzyme preparation, by mixing three tablets with food or by oral administration immediately before each feeding. The dogs were maintained on this regimen for approximately three weeks. During this time, their weight and blood chemistries were closely monitored. The Viokase supplementation was then stopped and the same parameters were again evaluated. One week after the Viokase administration had ceased, the animals were euthanized and tissues were taken for histology and for the determination of tissue polyamine levels.

exocrine pancreas = assay: as above; type: in vivo, beagles
Description: as §1, §2, §3, §4

[2] = system: Pancreatic Ductal Adenocarcinoma #03; assay: Evaluation against early stage pancreatic ductal adenocarcinoma #03 in BDF mice; type: in vivo
Source text: Male BDF mice (12 weeks old, weight approximately 28.9 g) were implanted with the pancreatic ductal cell carcinoma #03 3 days before beginning treatment with (HO)2DEHSPM.

[3] = Non-tumor-bearing toxicity controls, same regimens; type: in vivo; conditions: group 3, NTB; IV QD 3, 4, 6-9, 14, 17, 18; total dosage 240 mg/kg
[4] = system: native polyamine levels in AR42J cells; assay: Polyamine pool analysis in AR42J cells; type: cell-based; conditions: 5 μm analogue
Description: In addition, the effect of (OH)2DEHSPM on the native polyamine levels in this cell line was evaluated.

[5] = dog #516, 2.15 mg/kg/day, approximately two months post-drug
[6] = dogs #490 and 494, 4.3 mg/kg/day, approximately 55-60 days post-drug
[7] = group 2, total dosage 240 mg/kg IV
[8] = group 4, total dosage 205 mg/kg IV
[9] = group 6, total dosage 102.5 mg/kg IV

`CCNCC[C@@H](O)CNCCCCNC[C@H](O)CCNCC.Cl.Cl.Cl.Cl` [(R,R)-(HO)2DEHSPM, N^1,N^14-Diethyl-3(R) 12(R)-dihydroxyhomospermine tetrahydrochloride] showed an SGPT ([1]; dog #490, 4.3 mg/kg/day) of 1108 U/L, an alkaline phosphatase ([1]; dog #490, 4.3 mg/kg/day) of 542 U/L and an SGPT ([1]; dog #494, 4.3 mg/kg/day) of 776 U/L. For the same molecule, the alkaline phosphatase ([1]; dog #494, 4.3 mg/kg/day) was 436 U/L, the “SGPT (routine chemistry panel)” value [1, 5] was “elevated” and the “SGPT (blood chemistries)” value [1, 6] was “elevated”. For the same molecule, the pancreas at necropsy (exocrine pancreas; 75-, 78-, 88- and 92-days post-treatment, all cases) was “Severe atrophy”, the “histopathology of pancreatic sample” value (exocrine pancreas; 75-days post-treatment sample) was “moderate to severe pancreatitis” and the “trypsin-like immunoreactivity (TLI)” value (exocrine pancreas; both dogs #490 and 494, 4.3 mg/kg/day, throughout Viokase and post-Viokase periods) was “below 2.0 ng/ml”. The “serum trypsin-like immunoreactivity test” value (exocrine pancreas; dog #516, 2.15 mg/kg/day) was “confirmed the presence of exocrine pancreatic insufficiency”, the pancreas at necropsy (exocrine pancreas; dog #516, 2.15 mg/kg/day, 75-days post-drug) was “atrophied” and the body weight (exocrine pancreas; [5]) was “begun losing weight”. The “fecal check (fat in stool)” value (exocrine pancreas; [5]) was “large amount of fat”, the “qualitative fecal fat and trypsin-like immunoreactivity” value (exocrine pancreas; dogs #490 and 494, 4.3 mg/kg/day) was “confirmed the presence of exocrine pancreatic insufficiency” and the weight loss (exocrine pancreas; [6]) was 2 kg. For the same molecule, the pancreas at necropsy (exocrine pancreas; dogs #490 and 494, 4.3 mg/kg/day, one week after Viokase ceased) was “severely atrophied”, the “glucose levels (endocrine functionality)” value (exocrine pancreas; dogs #490 and 494, 4.3 mg/kg/day, throughout the experiment) was “normal” and the “Percent Body Wt. Loss” value ([2]; group 2, tumor-bearing, IV QD 3, 4, 6-9, 14, 17, 18, total dosage 240 mg/kg) was 38%. For the same molecule, the “Drug Deaths (days of death)” value ([2]; group 2, tumor-bearing, total dosage 240 mg/kg IV) was “none of the mice died”, the Comments [2, 7] was “Inactive” and the “Median Tumor Burden (mg) on day 18 (range)” value (from here on “Median Tumor Burden (mg)”) [2, 7] was 651 (138-1324) mg. For the same molecule, the “Tumor Free on Day” value [2, 7] was 0/5, the T/C % ([2]; group 2, total dosage 240 mg/kg IV, tumor burden vs control) was 64% and the “Percent Body Wt. Loss” value ([2]; group 4, tumor-bearing, IV QD 3-18, total dosage 205 mg/kg) was “somewhat less dramatic”. For the same molecule, the “Median Tumor Burden (mg)” value [2, 8] was 172 (63-965) mg, the “T-C” value [2, 8] was 9 days and the “Time to 1000 mg days (range)” value [2, 8] was 26.8 (18-28) days. The “Tumor Free on Day” value [2, 8] was 0/5, the “Log Kill” value ([2]; group 4, total dosage 205 mg/kg IV, Td = 3.5 days) was 0.8 and the “Percent Body Wt. Loss” value ([2]; group 6, tumor-bearing, IV QD 3-18, total dosage 102.5 mg/kg) was “no significant weight loss”. The Comments [2, 9] was “Inactive”, the “Median Tumor Burden (mg)” value [2, 9] was 617 (270-748) mg and the “Tumor Free on Day” value [2, 9] was 0/5. The “Percent Body Wt. Loss” value [3] was 30%, the Analogue level [4] was 4748 pmol/million cells and the “PUT, native polyamine level as % polyamine pools relative to untreated controls” value [4] was 0%. The “SPD, native polyamine level as % polyamine pools relative to untreated controls” value [4] was 21% and the “SPM, native polyamine level as % polyamine pools relative to untreated controls” value [4] was 82%.
